Source: the NIST ThermoML archive (doi:10.1021/acs.jced.9b00507)

Experiment: xn = mol fraction of the nth substance listed
Settings: 100 kPa, Liquid; for viscosity: Concentric cylinders viscometry; for mass density: Vibrating tube method

CCCCCCn1cc[n+](C)c1.O=[N+]([O-])[O-] [1-hexyl-3-methylimidazolium nitrate] + CCCCCCCO
Settings	mass density [kg/m3]	viscosity [mPa·s]
293.15 K, x1 = 0.0812	857.5	12.74
293.15 K, x1 = 0.1608	889.6	22.91
293.15 K, x1 = 0.2395	919	36.98
293.15 K, x1 = 0.3493	956.7	67.76
293.15 K, x1 = 0.4392	985	100.46
293.15 K, x1 = 0.5749	1023.9	177.42
293.15 K, x1 = 0.6491	1043.4	234.42
293.15 K, x1 = 0.7398	1065.6	338.84
293.15 K, x1 = 0.8496	1090.2	508.16
293.15 K, x1 = 0.9381	1108.4	677.64
293.15 K, x1 = 1	1120.3	804.17
298.15 K, x1 = 0.0812	853.9	10.09
298.15 K, x1 = 0.1608	885.9	16.67
298.15 K, x1 = 0.2395	915.3	25.12
298.15 K, x1 = 0.3493	953.1	41.88
298.15 K, x1 = 0.4392	981.5	61.38
298.15 K, x1 = 0.5749	1020.5	109.9
298.15 K, x1 = 0.6491	1040	150.66
298.15 K, x1 = 0.7398	1062.2	219.28
298.15 K, x1 = 0.8496	1087.1	334.2
298.15 K, x1 = 0.9381	1105.4	460.97
298.15 K, x1 = 1	1117.5	545.25
303.15 K, x1 = 0.0812	850.3	7.94
303.15 K, x1 = 0.1608	882.2	12.19
303.15 K, x1 = 0.2395	911.5	17.82
303.15 K, x1 = 0.3493	949.3	28.31
303.15 K, x1 = 0.4392	977.7	40.09
303.15 K, x1 = 0.5749	1016.8	69.18
303.15 K, x1 = 0.6491	1036.3	94.19
303.15 K, x1 = 0.7398	1058.6	136.14
303.15 K, x1 = 0.8496	1083.5	213.3
303.15 K, x1 = 0.9381	1102.1	303.7
303.15 K, x1 = 1	1114.3	369.14
308.15 K, x1 = 0.0812	846.5	6.64
308.15 K, x1 = 0.1608	878.3	9.57
308.15 K, x1 = 0.2395	907.7	13.27
308.15 K, x1 = 0.3493	945.5	19.95
308.15 K, x1 = 0.4392	973.9	27.99
308.15 K, x1 = 0.5749	1013	46.34
308.15 K, x1 = 0.6491	1032.6	61.8
308.15 K, x1 = 0.7398	1054.9	91.83
308.15 K, x1 = 0.8496	1080	147.57
308.15 K, x1 = 0.9381	1098.7	206.54
308.15 K, x1 = 1	1111.1	257.59
313.15 K, x1 = 0.0812	842.8	5.43
313.15 K, x1 = 0.1608	874.6	7.36
313.15 K, x1 = 0.2395	903.9	9.99
313.15 K, x1 = 0.3493	941.7	14.27
313.15 K, x1 = 0.4392	970.1	19.02
313.15 K, x1 = 0.5749	1009.3	31.62
313.15 K, x1 = 0.6491	1028.9	42.17
313.15 K, x1 = 0.7398	1051.3	62.32
313.15 K, x1 = 0.8496	1076.5	101.4
313.15 K, x1 = 0.9381	1095.3	142.89
313.15 K, x1 = 1	1107.8	185.67
318.15 K, x1 = 0.0812	839.1	4.59
318.15 K, x1 = 0.1608	870.8	6.17
318.15 K, x1 = 0.2395	900.2	7.85
318.15 K, x1 = 0.3493	937.9	10.99
318.15 K, x1 = 0.4392	966.4	14.45
318.15 K, x1 = 0.5749	1005.6	22.7
318.15 K, x1 = 0.6491	1025.4	30.06
318.15 K, x1 = 0.7398	1047.9	43.55
318.15 K, x1 = 0.8496	1073.1	71.58
318.15 K, x1 = 0.9381	1092.1	106.41
318.15 K, x1 = 1	1104.7	140.18
323.15 K, x1 = 0.0812	835.3	3.84
323.15 K, x1 = 0.1608	867	5.01
323.15 K, x1 = 0.2395	896.4	6.43
323.15 K, x1 = 0.3493	934.2	8.89
323.15 K, x1 = 0.4392	962.6	11.59
323.15 K, x1 = 0.5749	1001.9	17.99
323.15 K, x1 = 0.6491	1021.8	23.44
323.15 K, x1 = 0.7398	1044.4	34.2
323.15 K, x1 = 0.8496	1069.8	54.87
323.15 K, x1 = 0.9381	1088.9	82.79
323.15 K, x1 = 1	1101.6	110.94
